Measured values as given in patent publication US9976122B2, “Methods and compositions for generating an immune response by inducing CD40 and pattern recognition receptor adapters” (BAYLOR COLLEGE OF MEDICINE, priority 2008, dated 2018).

Assays:
[1] = test system: human SOCS1; test: Real time Q-PCR assay for human SOCS1 in DCs; assay type: cell-based; conditions: stimulus by itself
Text: Total RNA was purified and reverse transcribed with random hexamers using SuperScript II RTase (Invitrogen, Carlsbad, Calif.). mRNA levels were quantified in DCs by subjecting cDNA to TaqMan PCR analysis using the GeneAmp 5700 Sequence Detection System (Applied Biosystems, Foster City, Calif.). Pre-developed sequence detection reagents (Applied Biosystems) specific for human SOCS1 and 18S rRNA, including forward and reverse primers as well as a fluorogenic TaqMan FAM-labeled hybridization probe, were supplied as mixtures and were used at 1 microliter/20 microliter PCR. Samples were run in duplicates. The level of SOCS1 expression in each sample was normalized to the level of 18S rRNA from the same sample using the comparative 2-delta delta CT method (Livak K J, Schmittgen T D. Analysis of relative gene expression data using real-time quantitative PCR and the 2(-Delta Delta C(T)) Method. Methods. 2001; 25:402-408).
Finally, the induction of the suppressor of cytokine signaling (SOCS1) was evaluated.

[2] = test system: Naïve CD4+CD45RA+ T cells; assay type: cell-based, human; conditions: restimulated with TTp30 at day 7
[3] = test system: human DCs; test: Cytokine ELISA (IL-12p70, IL-6) of culture supernatants of human monocyte-derived DCs; assay type: cell-based; conditions: LPS and CD40L-stimulated DCs

Molecule: Lipopolysaccharide [LPS]
- SOCS1 induction in DCs [1]: up-regulated

Molecule: monophosphoryl lipid A [MPL]
- IFN-gamma production in CD4+ T cells [2]: not induced

B1: CD40L: CD40 ligand, a TNF family member that binds to the CD40 receptor (protein)
chain: MIETYNQTSPRSAATGLPISMKIFMYLLTVFLITQMIGSALFAVYLHRRLDKIEDERNLHEDFVFMKTIQRCNTGERSLSLLNCEEIKSQFEGFVKDIMLNKEETKKENSFEMQKGDQNPQIAAHVISEASSKTTSVLQWAEKGYYTMSNNLVTLENGKQLTVKRQGLYYIYAQVTFCSNREASSQAPFIASLCLKSPGRFERILLRAANTHSSAKPCGQQSIHLGGVFELQPGASVFVNVTDPSQVSHGTGFTSFGLLKL
- IL-12p70 expression after removal of LPS stimulation [3]: ceased when LPS stimulation was removed
